Data: patent US20250057820A1, “AUTOTAXIN (ATX) INHIBITOR FOR THE TREATMENT OF PANCREATIC CANCER” (priority 2021, published 2025)

Key:
PANC-1 tumour cells [1] = details: for tumour growth inhibition: BALB/C nude mice, tumour weight at day 42
Method: The therapeutic efficacy of Compound 1 with or without gemcitabine was evaluated in the orthotopic PANC-1 mouse model of pancreatic cancer. This model is constituted by the implantation of PANC-1 tumor cells into the pancreas […] in BALB/C nude mice.
Each mouse was inoculated into the subcapsular region of the pancreas with PANC-1 tumour cells (3×10^6) in 50 uL PBS with Matrigel (1:1). The date of tumour cell inoculation was denoted as day 0. Randomization started 10 days after tumour cell inoculation based on body weight. 10 mice per group were assigned to treatment by oral gavage with vehicle (1% methylcellulose, BID), gemcitabine (25 mg/kg, Q4D), Compound 1 (10 mg/kg, BID), or Compound 1 (10 mg/kg, BID) and gemcitabine (25 mg/kg, Q4D). Tumor sizes were measured by weight after termination at day 42.

pancreatic cancer = pancreatic cancer patients, standard treatment; cited from earlier work
RC416 tumour cells = test: orthotopic RC416 mouse model of pancreatic cancer (survival); format: in vivo; details: Compound 1 10 mg/kg BID p.o., galunisertib 50 mg/kg BID p.o., gemcitabine 75 mg/kg QW i.p.; max 28 days treatment; FIG. 5
Description: This model is constituted by the implantation of RC416 cells originating from a spontaneous developed donor tumour in KPC mice into the pancreas of female wildtype C57BL/6 recipient mice. The pathology and tumour microenvironment in this model closely resemble human pancreatic cancer and is characterized by high circulating ATX and TGF-β.
The day of tumour cell inoculation was denoted as day 0. Randomization started 7 days after tumor cell inoculation, based on body weight. 5 mice per group were assigned to treatment, with vehicle (1% methylcellulose, BID p.o.), Compound 1 (10 mg/kg, BID p.o.), galunisertib (50 mg/kg, BID p.o.), gemcitabine (75 mg/kg, QW i.p.), or the combinations of Compound 1 plus gemcitabine, Compound 1 plus galunisertib and gemcitabine, and galunisertib plus gemcitabine, Mice were treated for a maximum of 28 days and anti-tumour activity was measured by survival.

PANC-1 tumour cells [2] = test: subcutaneous PANC-1 xenograft mouse model of pancreatic cancer; format: in vivo; details: BALB/c Nude mice, subcutaneous PANC-1, FIG. 3
Method: The therapeutic efficacy of Compound 1 was evaluated in the subcutaneous PANC-1 mouse model of pancreatic cancer.
BALB/c Nude mice were inoculated subcutaneously in the right front flank region with PANC-1 tumour cells (5×10^6) in 0.1 ml of PBS. The date of tumour cell inoculation was denoted as day 0. The randomization started when the mean tumour size>100 mm^3. 10 mice were enrolled per study group. Tumour growth and body weights were measured twice per week.

mPA6115-luc tumour cells = test: orthotopic mPA6115-luc mouse model of pancreatic cancer; format: in vivo; details: 10 mg/kg BID oral gavage, female C57BL/6 mice, FIG. 2
Method: This model is constituted by the implantation of mPA6115-luc cells originating from a spontaneous developed donor tumour in KPC mice into the pancreas of female wildtype C57BL/6 recipient mice.
Each mouse was inoculated into the subcapsular region of the pancreas with mPA6115-luc tumour cells (1×10^6) in 50 uL PBS with Matrigel (1:1). The date of tumour cell inoculation was denoted as day 0.
The randomization started 4 days after tumour cell inoculation based on the total flux (p/s, minimum flux>1E^6). 10 mice per group were assigned to treatment by BID oral gavage with vehicle (1% methylcellulose) or Compound 1 (10 mg/kg in 1% methylcellulose). Tumour growth and metastasis were imaged twice per week by bioluminescent imaging.

[3] = Compound 1 10 mg/kg BID, gemcitabine 25 mg/kg Q4D

Structure (SMILES): Nc1ccn([C@@H]2O[C@H](CO)[C@@H](O)C2(F)F)c(=O)n1 [gemcitabine]
- mice died or sacrificed for reaching humane endpoints (mortality) (PANC-1 tumour cells [1]; 10 mice per group, Compound 1 10 mg/kg BID, gemcitabine 25 mg/kg Q4D): 5 mice
- tumour growth inhibition (PANC-1 tumour cells [1]; [3]): 41%
- Number of Mice on Day 42 (PANC-1 tumour cells [1]; BALB/C nude, mouse, in vivo, 42 day): 5
- Pancreas Size (mg) on Day 42 (PANC-1 tumour cells [1]; Day 42): 549 + 44 mg
- average median overall survival (pancreatic cancer): 6 months
- response rate (pancreatic cancer): 5-10%
- survival (RC416 tumour cells): limited survival benefit

Structure (SMILES): C[C@H](NC(=O)CCc1nc2cccnc2n1Cc1ccc(OC(F)(F)F)cc1)c1ccc(Cl)cc1 [Compound 1, N—[(S)-1-(4-chloro-phenyl)-ethyl]-3-[3-(4-trifluoromethoxy-benzyl)-3H-imidazo[4,5-b]pyridin-2-yl]-propionamide]
- tumour growth inhibition (PANC-1 tumour cells [1]; [3]): 5%
- tumour outgrowth (PANC-1 tumour cells [2]): reduced tumour outgrowth
- tumour outgrowth based on total bioluminescence (mPA6115-luc tumour cells): significantly reduced tumour outgrowth
